# Test system: 843782-103-R-J1-PDC complex spheroid viability
# Assay: Anticancer human tumor 843782-103-R-J1-PDC patient-derived lung adenocarcinoma cell line growth inhibition [RAS]
# Conditions: for viability, T/C: stronger effect = lower value
# From the text: RAS pathway inhibitors in Combinations in Complex Spheroids
# A high-throughput screen of multi-cell type tumor spheroids was designed to identify active combinations of RAS pathway inhibitors and targeted small molecules. Complex spheroids include a stromal component modeled by human endothelial cells (HUVEC) and fibroblasts modeled by human mesenchymal stem cells (MSCs). The concentration ranges selected for each drug and investigational agent were based upon clinically achievable concentrations if the clinical Cmax of the agent was known.
# Compounds. The drugs and investigational agents: abemaciclib (NSC768073), cobimetinib (NSC768068), divarasib (GDC6063, NSC841802), docetaxel (NSC628503), GDC-1971 (RLY-1971, NSC841576), gemcitabine (NSC613327), inavolisib (NSC800729), ipatasertib (NSC767898), KB-0742 (NSC834161), MRTX-1133 (NSC836407), osimertinib (NSC779217), RMC-4630 (NSC839698), RMC-6236 (NSC851965), RMC-6291 (NSC852671), Ro-3306 (NSC812927), sapanisertib (NSC764658), SN-38 (NSC673596), staurosporine (NSC755774), SY5609 (NSC837396), and tovorafenib (DAY101, NSC766906), were obtained from the National Cancer Institute (NCI) Developmental Therapeutics Program Chemical Repository. The FDA-approved anticancer drug set is available from the NCI Developmental Therapeutics Program. […] The stock solutions were prepared in dimethyl sulfoxide (DMSO, Sigma-Aldrich, St. Louis, MO, cat. D2650) at 800-fold the tested concentration and stored at -70 degrees C prior to their use. All drugs and investigational agents were tested over a range starting from a high concentration at or near the clinical Cmax and decreasing in half-log increments. If the clinical Cmax for an agent had not been determined, the highest concentration tested was 10 microM.
# Cell Culture. All cells were maintained in an incubator at 37 degrees C and 5% CO2 with 95% humidity. The PDC lines were cultured according to standard operating procedures established by the NCI PDMR. All PDCs were thawed and cultured in Matrigel-coated flasks prepared with a working solution of 1X Ham's F-12 nutrient mix, without supplementation (Invitrogen, Waltham, MA, cat. 11765054), 100 U/mL penicillin-streptomycin (Invitrogen, cat. 15140122), and 2.5% Matrigel (Corning Inc., Corning, NY, cat. 354248) for the first three passages. The 362531-283-R-J2-PDC and 782815-120-R-J1-PDC lines were cultured in 6C/Colon 1B media, which includes advanced DMEM/F-12 (Thermo Fisher Scientific, cat. 12634028), 10 mM HEPES (Thermo Fisher Scientific, cat. 15630080), 1X GlutaMAX supplement (Thermo Fisher Scientific, cat. 35050061), 0.1 mg/mL primocin (InvivoGen, San Diego, CA, cat. ant-pm-2), 10% defined fetal bovine serum, heat inactivated (HyClone Laboratories Inc., Logan, UT, cat. SH30070.03HI), 50% L-WRN conditioned media (ATCC, cat. CRL-3276), 1.25 mM N-Acetyl-L-cysteine (Sigma-Aldrich, cat. A9165), 10 mM nicotinamide (Sigma-Aldrich, cat. N0636), 1X B-27 supplement (Thermo Fisher Scientific, cat. 17504044), 1X N-2 supplement (Thermo Fisher Scientific, cat. 17502048), 50 ng/mL human EGF (Thermo Fisher Scientific, cat. PHG0311), and 10 microM Y-27632 dihydrochloride (Tocris Bioscience, cat. 1254). The K12877-001-R-J1-PDC line was cultured in 6I media, which includes all 6C/Colon 1B media plus 10 ng/mL human FGF-10 (PeproTech, cat. 100-26), 1 ng/mL human FGF-2 (PeproTech, cat. 100-18B), 1 µM prostaglandin E2 (Tocris Bioscience, cat. 2296), […] hydrocortisone (Sigma-Aldrich, cat. H4001), and […] bovine insulin (Sigma-Aldrich, cat. I6634). The K86415-001-R-J1-PDC line was cultured in 6D media, which includes all 6C/Colon 1B media components minus the L-WRN conditioned media. The 485176-168-R4-J1-PDC was cultured in PANC media, which includes all 6C/Colon 1B media plus 100 ng/mL human FGF-10 (PeproTech, cat. 100-26), 500 nM SB-431542 (Selleckchem, cat. S1067), and 10 nM gastrin (Tocris Bioscience, cat. 3006). […]
# [1] = curve of first compound, second compound 0.0316 µM
# [2] = curve of first compound, second compound 0.1 µM
# [3] = curve of first compound, second compound 0.316 µM
# [4] = curve of first compound, second compound 1 µM
# [5] = curve of first compound, second compound 3.16 µM
# [6] = curve of first compound, second compound 10 µM
# [7] = second compound 0.0316 µM, first compound 0.00316 µM
# [8] = second compound 0.0316 µM, first compound 0.01 µM
# [9] = second compound 0.0316 µM, first compound 0.0316 µM
# [10] = second compound 0.0316 µM, first compound 0.1 µM
# [11] = second compound 0.0316 µM, first compound 0.316 µM
# [12] = second compound 0.0316 µM, first compound 1 µM
# [13] = second compound 0.1 µM, first compound 0.00316 µM
# [14] = second compound 0.1 µM, first compound 0.01 µM
# [15] = second compound 0.1 µM, first compound 0.0316 µM
# [16] = second compound 0.1 µM, first compound 0.1 µM
# [17] = second compound 0.1 µM, first compound 0.316 µM
# [18] = second compound 0.1 µM, first compound 1 µM
# [19] = second compound 0.316 µM, first compound 0.00316 µM
# [20] = second compound 0.316 µM, first compound 0.01 µM
# [21] = second compound 0.316 µM, first compound 0.0316 µM
# [22] = second compound 0.316 µM, first compound 0.1 µM
# [23] = second compound 0.316 µM, first compound 0.316 µM
# [24] = second compound 0.316 µM, first compound 1 µM
# [25] = second compound 1 µM, first compound 0.00316 µM
# [26] = second compound 1 µM, first compound 0.01 µM
# [27] = second compound 1 µM, first compound 0.0316 µM
# [28] = second compound 1 µM, first compound 0.1 µM
# [29] = second compound 1 µM, first compound 0.316 µM
# [30] = second compound 1 µM, first compound 1 µM
# [31] = second compound 3.16 µM, first compound 0.00316 µM
# [32] = second compound 3.16 µM, first compound 0.01 µM
# [33] = second compound 3.16 µM, first compound 0.0316 µM
# [34] = second compound 3.16 µM, first compound 0.1 µM
# [35] = second compound 3.16 µM, first compound 0.316 µM
# [36] = second compound 3.16 µM, first compound 1 µM
# [37] = second compound 10 µM, first compound 0.00316 µM
# [38] = second compound 10 µM, first compound 0.01 µM
# [39] = second compound 10 µM, first compound 0.0316 µM
# [40] = second compound 10 µM, first compound 0.1 µM
# [41] = second compound 10 µM, first compound 0.316 µM
# [42] = second compound 10 µM, first compound 1 µM
# 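Further: viability read after seven days of compound exposure.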
structure (smiles),measurement,setting,value
CC(=O)OC12COC1CC(O)C1(C)C(=O)C(O)C3=C(C)C(OC(=O)C(O)C(NC(=O)OC(C)(C)C)c4ccccc4)CC(O)(C(OC(=O)c4ccccc4)C21)C3(C)C (stereo not drawn),"viability, T/C",compound 0.0316 µM,3.82% [middle of 4 runs]
same,"viability, T/C",compound 0.1 µM,4.87% [middle of 4 runs]
same,"viability, T/C",compound 0.316 µM,5.01% [middle of 4 runs]
same,"viability, T/C",compound 1 µM,4.69% [middle of 4 runs]
same,"viability, T/C",compound 3.16 µM,6.26% [middle of 4 runs]
same,"viability, T/C",compound 10 µM,8.18% [middle of 4 runs]
same,IC50,curve of compound,< 31.6 nM
NC1c2ccccc2OC12CCN(c1cnc3c(N4CCCc5ncccc54)n[nH]c3n1)CC2 (stereo not drawn),"viability, T/C",compound 3.16 µM,51.5% [middle of 4 runs]
same,"viability, T/C",compound 10 µM,34.7% [middle of 4 runs]
C=CC(=O)Nc1cc(Nc2nccc(-c3cn(C)c4ccccc34)n2)c(OC)cc1N(C)CCN(C)C + C#Cc1c(F)ccc2cc(O)cc(-c3ncc4c(N5CC6CCC(C5)N6)nc(OCC56CCCN5CC(F)C6)nc4c3F)c12,IC50,[1],> 1000 nM
same,IC50,[2],> 1000 nM
same,IC50,[3],> 1000 nM
same,IC50,[4],595 nM
same,IC50,[5],231 nM
same,IC50,[6],57.6 nM
same,"viability, T/C",[7],108%
same,"viability, T/C",[8],98.2%
same,"viability, T/C",[9],101%
same,"viability, T/C",[10],96.9%
same,"viability, T/C",[11],94.6%
same,"viability, T/C",[12],55.4%
same,"viability, T/C",[13],104%
same,"viability, T/C",[14],94.7%
same,"viability, T/C",[15],102%
same,"viability, T/C",[16],97%
same,"viability, T/C",[17],88.2%
same,"viability, T/C",[18],64.2%
same,"viability, T/C",[19],105%
same,"viability, T/C",[20],99.4%
same,"viability, T/C",[21],101%
same,"viability, T/C",[22],93.9%
same,"viability, T/C",[23],80%
same,"viability, T/C",[24],54.4%
same,"viability, T/C",[25],97%
same,"viability, T/C",[26],90.7%
same,"viability, T/C",[27],99.9%
same,"viability, T/C",[28],88.9%
same,"viability, T/C",[29],65.3%
same,"viability, T/C",[30],37.6%
same,"viability, T/C",[31],90.3%
same,"viability, T/C",[32],81.6%
same,"viability, T/C",[33],88%
same,"viability, T/C",[34],63.6%
same,"viability, T/C",[35],46%
same,"viability, T/C",[36],33.3%
same,"viability, T/C",[37],55.9%
same,"viability, T/C",[38],54%
same,"viability, T/C",[39],56.5%
same,"viability, T/C",[40],44.7%
same,"viability, T/C",[41],33.1%
same,"viability, T/C",[42],4.02%
O=C(c1ccc(F)c(F)c1Nc1ccc(I)cc1F)N1CC(O)([C@@H]2CCCCN2)C1 + C#Cc1c(F)ccc2cc(O)cc(-c3ncc4c(N5CC6CCC(C5)N6)nc(OCC56CCCN5CC(F)C6)nc4c3F)c12,IC50,[1],287 nM
same,IC50,[2],231 nM
same,IC50,[3],230 nM
same,IC50,[4],129 nM
same,IC50,[5],35.2 nM
same,IC50,[6],6.34 nM
same,"viability, T/C",[7],107%
same,"viability, T/C",[8],94.2%
same,"viability, T/C",[9],92.5%
same,"viability, T/C",[10],84.1%
same,"viability, T/C",[11],45.9%
same,"viability, T/C",[12],20%
same,"viability, T/C",[13],107%
same,"viability, T/C",[14],104%
same,"viability, T/C",[15],89.5%
same,"viability, T/C",[16],74%
same,"viability, T/C",[17],39.4%
same,"viability, T/C",[18],27.7%
same,"viability, T/C",[19],102%
same,"viability, T/C",[20],90.7%
same,"viability, T/C",[21],89.1%
same,"viability, T/C",[22],75.5%
same,"viability, T/C",[23],39.6%
same,"viability, T/C",[24],22.3%
same,"viability, T/C",[25],96%
same,"viability, T/C",[26],95.4%
same,"viability, T/C",[27],81.8%
same,"viability, T/C",[28],56.6%
same,"viability, T/C",[29],28.9%
same,"viability, T/C",[30],19.7%
same,"viability, T/C",[31],81.5%
same,"viability, T/C",[32],65.7%
same,"viability, T/C",[33],53.8%
same,"viability, T/C",[34],34.9%
same,"viability, T/C",[35],26.4%
same,"viability, T/C",[36],18.4%
same,"viability, T/C",[37],56.3%
same,"viability, T/C",[38],46.5%
same,"viability, T/C",[39],34.5%
same,"viability, T/C",[40],26.9%
same,"viability, T/C",[41],19.2%
same,"viability, T/C",[42],14%
